This is an account of results in US7902361B2, “Pyrimidin-4-yl-3, 4-thione compounds and their use in therapy” (Cyclacel Limited, priority 2003, dated 2011).

Holding throughout (type): biochemical
In one test the target is CDK9/cyclin T1 (Homo sapiens, UniProt P50750). Briefly: Kinase assay CDK9/cyclin T1. As to conditions: Ki calculated (Cheng-Prusoff) from experimentally determined IC50 and Km,ATP; read-out: Kinase Inhibition Ki CDK9 - cyclin T1. On the procedure: (§1) The compounds from the examples above were investigated for their ability to inhibit the enzymatic activity of various protein kinases. This was achieved by measurement of incorporation of radioactive phosphate from ATP into appropriate polypeptide substrates. Recombinant protein kinases and kinase complexes were produced or obtained commercially. Assays were performed using 96-well plates and appropriate assay buffers (typically 25 mM β-glycerophosphate, 20 mM MOPS, 5 mM EGTA, 1 mM DTT, 1 mM […], pH 7.4), into which were added 2-4 μg of active enzyme with appropriate substrates. The reactions were initiated by addition of Mg/ATP mix (15 mM MgCl2+100 μM ATP with 30-50 kBq per well of [γ-^32P]-ATP) and mixtures incubated as required at 30° C. Reactions were stopped on ice, followed by filtration through p81 filterplates or GF/C filterplates (Whatman Polyfiltronics, Kent, UK). After washing 3 times with 75 mM aq orthophosphoric acid, plates were dried, scintillant added and incorporated radioactivity measured in a scintillation counter (TopCount, Packard Instruments, Pangbourne, Berks, UK). Compounds for kinase assay were made up as 10 mM stocks in DMSO and diluted into 10% DMSO in assay buffer.
Chain of CDK9/cyclin T1 (P50750 whole entry, species assumed): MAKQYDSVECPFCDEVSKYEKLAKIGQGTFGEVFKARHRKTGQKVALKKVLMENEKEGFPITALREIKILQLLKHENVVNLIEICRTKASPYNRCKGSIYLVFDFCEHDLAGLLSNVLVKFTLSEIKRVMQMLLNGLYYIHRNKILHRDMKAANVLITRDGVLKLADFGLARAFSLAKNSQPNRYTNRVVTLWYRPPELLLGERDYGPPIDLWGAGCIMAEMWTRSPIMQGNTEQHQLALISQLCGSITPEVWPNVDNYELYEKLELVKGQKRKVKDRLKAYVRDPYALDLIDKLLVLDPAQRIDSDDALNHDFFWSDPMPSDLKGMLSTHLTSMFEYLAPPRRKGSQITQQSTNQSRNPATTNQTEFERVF
Chain of CDK9/cyclin T1 (O60563 whole entry partner, species assumed): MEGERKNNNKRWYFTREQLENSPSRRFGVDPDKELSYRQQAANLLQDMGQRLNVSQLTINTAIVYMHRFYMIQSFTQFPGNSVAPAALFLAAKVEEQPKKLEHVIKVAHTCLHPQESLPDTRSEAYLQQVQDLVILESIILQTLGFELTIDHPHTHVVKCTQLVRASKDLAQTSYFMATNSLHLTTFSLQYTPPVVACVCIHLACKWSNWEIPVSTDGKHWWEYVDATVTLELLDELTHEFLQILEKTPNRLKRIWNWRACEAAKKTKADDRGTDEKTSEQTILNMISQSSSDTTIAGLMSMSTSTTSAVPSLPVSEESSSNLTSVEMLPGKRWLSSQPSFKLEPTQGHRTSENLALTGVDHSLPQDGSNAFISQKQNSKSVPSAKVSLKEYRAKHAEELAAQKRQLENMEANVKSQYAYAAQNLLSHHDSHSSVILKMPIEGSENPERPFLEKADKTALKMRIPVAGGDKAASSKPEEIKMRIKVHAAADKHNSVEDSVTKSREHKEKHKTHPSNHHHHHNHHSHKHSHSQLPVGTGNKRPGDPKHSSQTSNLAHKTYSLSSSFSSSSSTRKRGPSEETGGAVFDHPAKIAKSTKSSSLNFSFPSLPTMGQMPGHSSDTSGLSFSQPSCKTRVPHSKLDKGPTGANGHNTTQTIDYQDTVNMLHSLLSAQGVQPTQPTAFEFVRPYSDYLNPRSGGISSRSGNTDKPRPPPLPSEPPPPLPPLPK

The target of the next test is CDK4/cyclin D1 (Homo sapiens, UniProt P11802). Briefly: Kinase assay CDK4/cyclin D1. As to conditions: Ki calculated (Cheng-Prusoff) from experimentally determined IC50 and Km,ATP; read-out: Kinase Inhibition Ki CDK4 - cyclin D1. The method, then:
as §1

The next test has as its target CDK7/cyclin H (Homo sapiens, UniProt P50613). Briefly: Kinase assay CDK7/cyclin H. As to conditions: Ki calculated (Cheng-Prusoff) from experimentally determined IC50 and Km,ATP; read-out: Kinase Inhibition Ki CDK7 - cyclin H. The method, then: as §1
The next test addresses CDK2/cyclin A (Homo sapiens, UniProt P24941). Briefly: Kinase assay CDK2/cyclin A. To be noted: Ki calculated (Cheng-Prusoff) from experimentally determined IC50 and Km,ATP; read-out: Kinase Inhibition Ki CDK2 - cyclin A. On the procedure: as §1, with “The reactions were initiated by addition of Mg/ATP mix (15 mM MgCl2+100 μM ATP with 30-50 kBq per well of [γ-^32P]-ATP) and mixtures incubated as required at 30° C.” left out

Another test concerns the target CDK1/cyclin B (Homo sapiens, UniProt P06493). Briefly: Kinase assay CDK1/cyclin B (radioactive phosphate incorporation). As to conditions: Ki calculated (Cheng-Prusoff) from experimentally determined IC50 and Km,ATP; read-out: Kinase Inhibition Ki CDK1 - cyclin B. The method, then:
as §1, with “The reactions were initiated by addition of Mg/ATP mix (15 mM MgCl2+100 μM ATP with 30-50 kBq per well of [γ-^32P]-ATP) and mixtures incubated as required at 30° C.” left out

The target of the next test is CDK2/cyclin E (Homo sapiens, UniProt P24941). Put plainly: Kinase assay CDK2/cyclin E. As to conditions: Ki calculated (Cheng-Prusoff) from experimentally determined IC50 and Km,ATP; read-out: Kinase Inhibition Ki CDK2 - cyclin E. On the procedure:
as §1, with “The reactions were initiated by addition of Mg/ATP mix (15 mM MgCl2+100 μM ATP with 30-50 kBq per well of [γ-^32P]-ATP) and mixtures incubated as required at 30° C.” left out

The next test has as its target T1, GSK3β (Homo sapiens, UniProt P49841).
T1 construct: purchased New England Biolabs
Put plainly: GSK3β in vitro kinase assay. To be noted: recombinant human GSK3β, 100 μM ATP. On the procedure:
Both isoforms of GSK3 (α and β) are involved in the regulation of glycogen synthase activity—key enzyme in the glycogen metabolism.
A 10-point titration was set up to determine the IC50 values of selected example compounds against GSK3β. Assays were performed using 96-well microtiter plates with a final volume of 25 μL per well. Each assay contained 1.5 units of GSK3β(New England Biolabs), 200 μM CREB phosphopeptide ([…]pSYR, Alta Biosciences), 20 mM Tris HCl pH7.5, 5 mM DTT, 15 mM MgCl2 supplemented with 100 μM ATP and 0.5 μCi of [γ-^32P] ATP plus or minus inhibitor in 2% DMSO. Assays were carried out for 30 minutes at 30° C. before stopping the reaction by the addition of an equal volume of 75 mM aqueous phosphoric acid. Samples were then spotted onto a p81 filterplate (Whatman) and a vacuum was applied. Wells were washed 3 times with 200 μL of dilute aqueous phosphoric acid before the addition of 50 μL Microscint 40 per well. Incorporation of radioactivity was determined on a Topcount microplate scintillation counter (Packard).

Chain of CDK7/cyclin H (P50613 whole entry, species assumed): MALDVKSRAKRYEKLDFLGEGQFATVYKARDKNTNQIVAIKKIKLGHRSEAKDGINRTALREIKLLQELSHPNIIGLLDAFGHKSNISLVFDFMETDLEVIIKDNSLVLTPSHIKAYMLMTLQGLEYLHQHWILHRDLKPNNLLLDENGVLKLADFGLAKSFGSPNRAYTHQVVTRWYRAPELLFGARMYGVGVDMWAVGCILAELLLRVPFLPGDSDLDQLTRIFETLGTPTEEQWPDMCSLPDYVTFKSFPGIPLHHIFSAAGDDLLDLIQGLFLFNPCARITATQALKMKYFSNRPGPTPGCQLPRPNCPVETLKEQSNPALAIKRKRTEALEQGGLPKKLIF
Chain of CDK7/cyclin H (P51946 whole entry partner, species assumed): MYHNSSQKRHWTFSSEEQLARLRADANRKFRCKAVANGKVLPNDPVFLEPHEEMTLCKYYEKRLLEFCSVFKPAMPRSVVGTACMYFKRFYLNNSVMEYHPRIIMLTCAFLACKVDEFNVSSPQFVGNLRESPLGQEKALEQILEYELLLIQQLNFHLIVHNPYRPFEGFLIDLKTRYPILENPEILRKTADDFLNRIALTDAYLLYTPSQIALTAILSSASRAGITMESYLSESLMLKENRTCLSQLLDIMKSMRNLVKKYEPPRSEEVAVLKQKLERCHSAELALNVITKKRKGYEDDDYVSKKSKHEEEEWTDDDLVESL
T1 sequence (P49841 whole entry): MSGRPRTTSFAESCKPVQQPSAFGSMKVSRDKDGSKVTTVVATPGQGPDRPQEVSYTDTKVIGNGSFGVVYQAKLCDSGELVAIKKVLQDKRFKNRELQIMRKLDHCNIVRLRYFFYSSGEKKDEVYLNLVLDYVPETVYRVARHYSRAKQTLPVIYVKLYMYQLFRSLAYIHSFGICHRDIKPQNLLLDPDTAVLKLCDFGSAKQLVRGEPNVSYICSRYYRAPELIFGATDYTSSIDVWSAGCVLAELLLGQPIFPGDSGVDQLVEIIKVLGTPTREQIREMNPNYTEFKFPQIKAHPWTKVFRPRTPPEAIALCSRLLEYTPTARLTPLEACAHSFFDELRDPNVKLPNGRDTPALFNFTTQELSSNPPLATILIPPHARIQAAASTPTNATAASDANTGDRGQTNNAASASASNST
Chain of CDK4/cyclin D1 (P11802 whole entry, species assumed): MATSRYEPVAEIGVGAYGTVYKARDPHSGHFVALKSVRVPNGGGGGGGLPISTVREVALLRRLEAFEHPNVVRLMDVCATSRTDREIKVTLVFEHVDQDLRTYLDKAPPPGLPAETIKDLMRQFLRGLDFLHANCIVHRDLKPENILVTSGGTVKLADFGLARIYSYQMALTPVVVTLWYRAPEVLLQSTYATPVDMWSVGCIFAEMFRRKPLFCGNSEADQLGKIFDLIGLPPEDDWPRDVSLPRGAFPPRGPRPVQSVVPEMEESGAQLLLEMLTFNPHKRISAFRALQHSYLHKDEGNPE
Chain of CDK4/cyclin D1 (P24385 whole entry partner, species assumed): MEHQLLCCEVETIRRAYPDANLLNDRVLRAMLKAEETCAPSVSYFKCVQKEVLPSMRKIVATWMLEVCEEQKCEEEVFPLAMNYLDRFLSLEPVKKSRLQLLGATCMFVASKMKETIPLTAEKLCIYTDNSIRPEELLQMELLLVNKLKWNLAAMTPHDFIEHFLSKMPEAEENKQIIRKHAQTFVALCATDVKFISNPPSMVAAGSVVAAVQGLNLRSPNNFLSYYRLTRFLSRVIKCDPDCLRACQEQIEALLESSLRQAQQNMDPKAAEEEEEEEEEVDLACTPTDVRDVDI
Chain of CDK1/cyclin B (P06493 whole entry, species assumed): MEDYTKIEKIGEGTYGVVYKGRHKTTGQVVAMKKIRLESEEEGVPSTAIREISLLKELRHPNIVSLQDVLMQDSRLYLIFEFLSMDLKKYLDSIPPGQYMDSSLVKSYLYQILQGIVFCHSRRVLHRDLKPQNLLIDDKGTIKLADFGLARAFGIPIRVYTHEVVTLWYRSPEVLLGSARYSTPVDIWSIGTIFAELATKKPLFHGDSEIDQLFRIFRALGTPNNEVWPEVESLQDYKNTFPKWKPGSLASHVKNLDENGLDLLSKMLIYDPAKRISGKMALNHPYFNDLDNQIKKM
Chain of CDK1/cyclin B (P14635 whole entry partner, species assumed): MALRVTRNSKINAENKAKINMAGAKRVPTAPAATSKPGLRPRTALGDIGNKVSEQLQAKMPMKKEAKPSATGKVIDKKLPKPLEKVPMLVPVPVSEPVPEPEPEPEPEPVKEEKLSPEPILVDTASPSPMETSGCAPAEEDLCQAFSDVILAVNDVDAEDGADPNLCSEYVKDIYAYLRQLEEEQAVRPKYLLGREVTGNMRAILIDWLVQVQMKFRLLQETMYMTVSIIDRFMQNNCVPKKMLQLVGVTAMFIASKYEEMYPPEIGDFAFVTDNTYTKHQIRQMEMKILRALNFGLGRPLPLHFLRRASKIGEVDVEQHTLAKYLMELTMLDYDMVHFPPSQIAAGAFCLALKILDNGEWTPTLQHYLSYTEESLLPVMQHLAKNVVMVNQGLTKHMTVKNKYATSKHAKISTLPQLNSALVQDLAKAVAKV

The Ki is a dissociation constant, usually derived from enzyme kinetics or from competition with a known ligand. Turning to `Cc1c(-c2ccnc(Nc3ccc(N(C)C)cc3)n2)sc(=O)n1C` [Compound 8, 5-[2-(4-Dimethylamino-phenylamino)-pyrimidin-4-yl]-3,4-dimethyl-3H-thiazol-2-one], the Ki at CDK9/cyclin T1 is 41 nM; on CDK4/cyclin D1, 530 nM; at CDK7/cyclin H it was 860 nM; on CDK2/cyclin A, 200 nM; on CDK1/cyclin B it was 750 nM; on CDK2/cyclin E, 750 nM.

In general, IC50 refers to the concentration at which inhibition is half-maximal. As to `CCn1c(C)c(-c2ccnc(Nc3ccc(Cl)c(C(F)(F)F)c3)n2)sc1=O` [Compound 48, 5-[2-(4-Chloro-3-trifluoromethyl-phenylamino)-pyrimidin-4-yl]-3-ethyl-4-methyl-3H-thiazol-2-one], the half-maximal inhibitory concentration (IC50) on GSK3β came out at 61.9 nM. In addition, on CDK9/cyclin T1, the Ki was 230 nM.

For `Cc1c(-c2ccnc(Nc3ccc(S(=O)(=O)NCc4ccccc4)cc3)n2)sc(=O)n1C` [Compound 73, N-Benzyl-4-[4-(3,4-dimethyl-2-oxo-2,3-dihydro-thiazol-5-yl)-pyrimidin-2-ylamino]-benzenesulfonamide], at GSK3β, the concentration for half-maximal inhibition (IC50) came to 66.5 nM. The Ki at CDK9/cyclin T1 is 380 nM; at CDK2/cyclin A, 650 nM; at CDK1/cyclin B, 1100 nM; at CDK2/cyclin E it was 80 nM.

Take `Cc1ccc(Nc2nccc(-c3sc(=O)n(C)c3C)n2)cc1N` [Compound 39, 5-[2-(3-Amino-4-methyl-phenylamino)-pyrimidin-4-yl]-3,4-dimethyl-3H-thiazol-2-one]: the Ki at CDK9/cyclin T1 was 14 nM; at CDK4/cyclin D1 it was 150 nM; at CDK7/cyclin H, 600 nM; at CDK2/cyclin A, 8.6 nM; at CDK1/cyclin B, 64 nM; on CDK2/cyclin E, 98 nM.

For `Cc1c(-c2ccnc(Nc3ccc(N4CCN(C)CC4)cc3)n2)sc(=O)n1C` [Compound 13, 3,4-Dimethyl-5-{2-[4-(4-methyl-piperazin-1-yl)-phenylamino]-pyrimidin-4-yl}-3H-thiazol-2-one], the Ki was 93 nM at CDK9/cyclin T1; 270 nM on CDK4/cyclin D1; 170 nM on CDK7/cyclin H; 230 nM at CDK2/cyclin A; 1500 nM on CDK1/cyclin B; 530 nM on CDK2/cyclin E.

In the case of `CCn1c(C)c(-c2ccnc(Nc3ccc(S(=O)(=O)O)cc3)n2)sc1=O` [Compound 53, 4-[4-(3-Ethyl-4-methyl-2-oxo-2,3-dihydro-thiazol-5-yl)-pyrimidin-2-ylamino]-benzenesulfonic acid], the IC50 on GSK3β worked out at 43.5 nM. The figures for the Ki at CDK2/cyclin A and at CDK2/cyclin E were 590 nM and 180 nM, respectively.

`CCn1c(C)c(-c2ccnc(Nc3cccc(O)c3)n2)sc1=O` [Compound 43, 3-Ethyl-5-[2-(3-hydroxy-phenylamino)-pyrimidin-4-yl]-4-methyl-3H-thiazol-2-one]: the IC50 on GSK3β is 41.5 nM. Besides, the Ki was 130 nM at CDK4/cyclin D1, 19 nM on CDK7/cyclin H and 2 nM at CDK2/cyclin E.

For the compound `CC(=O)NCc1cccc(Nc2nccc(-c3sc(=O)n(C)c3C)n2)c1` [Compound 42, N-{3-[4-(3,4-Dimethyl-2-oxo-2,3-dihydro-thiazol-5-yl)-pyrimidin-2-ylamino]-benzyl}-acetamide], the IC50 at GSK3β turned out to be 38.5 nM. Also, the Ki is 19 nM on CDK9/cyclin T1; 770 nM on CDK4/cyclin D1; 380 nM on CDK7/cyclin H; 220 nM at CDK2/cyclin A; 580 nM at CDK1/cyclin B; 34 nM at CDK2/cyclin E.

Take `CC(=O)N1CCN(c2ccc(Nc3nccc(-c4sc(=O)n(C)c4C)n3)cc2)CC1` [Compound 17, 5-{2-[4-(4-Acetyl-piperazin-1-yl)-phenylamino]-pyrimidin-4-yl}-3,4-dimethyl-3H-thiazol-2-one]: the Ki at CDK9/cyclin T1 was 77 nM; at CDK4/cyclin D1 it was 190 nM; on CDK7/cyclin H it was 510 nM; on CDK2/cyclin A, 180 nM; on CDK1/cyclin B it was 6900 nM; on CDK2/cyclin E, 260 nM.

Regarding `COc1ccc(Nc2nccc(-c3sc(=O)n(CCC(C)C)c3C)n2)cn1` [Compound 35, 5-[2-(6-Methoxy-pyridin-3-ylamino)-pyrimidin-4-yl]-4-methyl-3-(3-methyl-butyl)-3H-thiazol-2-one], the Ki at CDK9/cyclin T1 was 490 nM; on CDK4/cyclin D1, 2000 nM; at CDK7/cyclin H, 200 nM; at CDK2/cyclin A, 190 nM; on CDK1/cyclin B, 2600 nM; at CDK2/cyclin E, 660 nM.

For `Cc1[nH]c(=O)sc1-c1ccnc(Nc2cccc([N+](=O)[O-])c2)n1` [Compound 40, 4-Methyl-5-[2-(3-nitro-phenylamino)-pyrimidin-4-yl]-3H-thiazol-2-one], the Ki at CDK9/cyclin T1 was 2.4 nM; at CDK4/cyclin D1, 230 nM; on CDK7/cyclin H, 71 nM; at CDK2/cyclin A it was 11 nM; on CDK1/cyclin B, 17 nM; at CDK2/cyclin E, 3.2 nM.

`Cc1c(-c2ccnc(Nc3cccc([N+](=O)[O-])c3)n2)sc(=O)n1CCC(C)C` [Compound 30, 4-Methyl-3-(3-methyl-butyl)-5-[2-(3-nitro-phenylamino)-pyrimidin-4-yl]-3H-thiazol-2-one]: the Ki was 190 nM on CDK9/cyclin T1; 21000 nM on CDK4/cyclin D1; 31 nM at CDK7/cyclin H; 560 nM at CDK2/cyclin A; 670 nM at CDK1/cyclin B; 290 nM at CDK2/cyclin E.

Turning to `Cc1ccc(Nc2nccc(-c3sc(=O)[nH]c3C)n2)cc1[N+](=O)[O-]` [Compound 41, 4-Methyl-5-[2-(4-methyl-3-nitro-phenylamino)-pyrimidin-4-yl]-3H-thiazol-2-one], the Ki at CDK9/cyclin T1 is 8.9 nM; at CDK4/cyclin D1 it was 130 nM; at CDK7/cyclin H it was 290 nM; on CDK2/cyclin A it was 23 nM; at CDK1/cyclin B, 49 nM; at CDK2/cyclin E it was 12 nM.

In the case of `CCn1c(C)c(-c2ccnc(Nc3ccc(N(C)C)cc3)n2)sc1=O` [Compound 26, 5-[2-(4-Dimethylamino-phenylamino)-pyrimidin-4-yl]-3-ethyl-4-methyl-3H-thiazol-2-one], the Ki at CDK9/cyclin T1 is 690 nM; at CDK4/cyclin D1, 280 nM; at CDK7/cyclin H, 220 nM; on CDK2/cyclin A, 150 nM; at CDK1/cyclin B, 7000 nM; on CDK2/cyclin E, 290 nM.

As to `CCn1c(C)c(-c2ccnc(Nc3ccc(Cl)c(C)c3)n2)sc1=O` [Compound 51, 5-[2-(4-Chloro-3-methyl-phenylamino)-pyrimidin-4-yl]-3-ethyl-4-methyl-3H-thiazol-2-one], the IC50 on GSK3β is 542 nM. Besides, the Ki on CDK9/cyclin T1 was 190 nM; on CDK7/cyclin H, 970 nM; at CDK1/cyclin B, 2100 nM; on CDK2/cyclin E, 270 nM.

In the case of `CCn1c(C)c(-c2ccnc(Nc3cccc(S(=O)(=O)O)c3)n2)sc1=O` [Compound 54, 3-[4-(3-Ethyl-4-methyl-2-oxo-2,3-dihydro-thiazol-5-yl)-pyrimidin-2-ylamino]-benzenesulfonic acid], the IC50 on GSK3β stood at 158 nM.
